# From paper PMC3869726, “Inhibition of Human Neutrophil Elastase by Pentacyclic Triterpenes” (PLoS ONE, 2013)
# “And” between values parts separate entries of the source, which are not always exact repeats. Identical values can stand only once.
# Tests used:
# [1] = target: T1, Human neutrophil elastase (HNE) (Homo sapiens, UniProt P08246); assay: HNE activity inhibitory bioassay (MeO-Suc-Ala-Ala-Pro-Val-pNA hydrolysis, absorbance 405 nm); format: biochemical; conditions: for IC50: in vitro HNE assay, read-out: IC50, HNE inhibition; for Anti-HNE activity, inhibitory ratio: n = 3; for inhibition at 100 µM: tetracyclic triterpenoids (Table S3)
# T1 construct: HNE (EC 3.4.21.37) from human leukocytes was purchased; purchased Innovative Research Company (Novi, Michigan); host or cells: human leukocytes (natural source)
# T1 sequence (P08246 30-247 limits assumed): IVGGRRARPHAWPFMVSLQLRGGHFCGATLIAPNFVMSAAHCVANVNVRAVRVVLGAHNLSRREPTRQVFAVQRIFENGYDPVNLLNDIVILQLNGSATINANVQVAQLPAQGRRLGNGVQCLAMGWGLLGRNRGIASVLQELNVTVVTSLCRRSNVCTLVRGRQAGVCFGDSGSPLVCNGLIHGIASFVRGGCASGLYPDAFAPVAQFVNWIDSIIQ
# [2] = target: T2, HNE (Homo sapiens, UniProt P08246); assay: 1H NMR spin-lattice relaxation rates (Rns, Rse) of ligand with and without HNE; format: binding; conditions: pH 7.0, 298 K;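 also: ligand in d6-DMSO with 50 mM phosphate buffer, selective and nonselective spin-lattice rates from an inversion-recovery pulse sequence, computed by initial-rate approximation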
# T2 construct: HNE (EC 3.4.21.37) from human leukocytes was purchased; purchased Innovative Research Company (Novi, Michigan); host or cells: human leukocytes (natural source)
# T2 sequence (P08246 30-247 limits assumed): T1 sequence (P08246 30-247 limits assumed)
# [3] = target: T1, Human neutrophil elastase (HNE); assay: Enzyme inhibition kinetic analysis of HNE (Michaelis-Menten / Lineweaver-Burk); format: biochemical
# [4] = tested on: acute smoke-induced airway inflammation in mice; assay: Acute smoke-induced lung (airway) inflammation model in mice, BALF analysis
# [5] = smoke exposure, 50 mg/kg intraperitoneal
structure (smiles),measurement,setting,value
"COC(=O)[C@]12CCC(C)(C)C[C@H]1[C@H]1C(=O)C=C3[C@@]4(C)C=C(C#N)C(=O)C(C)(C)[C@@H]4CC[C@@]3(C)[C@]1(C)CC2 [CDDO-Me, C-28 methyl ester of 2-cyano-3,12-dioxoolen-1,9-dien-28-oic acid, reference compound]",IC50,[1],16.6 µM
"CC1(C)[C@@H](O[C@H]2O[C@H](C(=O)O)[C@@H](O)[C@H](O)[C@H]2O[C@@H]2O[C@H](C(=O)O)[C@@H](O)[C@H](O)[C@H]2O)CC[C@]2(C)[C@H]3C(=O)C=C4[C@@H]5C[C@@](C)(C(=O)O)CC[C@]5(C)CC[C@@]4(C)[C@]3(C)CC[C@@H]12 [Compound 4, glycyrrhizin]","Rns/Rse, proton H9",[2]; free ligand 1 mM,0.64
same,"Rns/Rse, proton H12",[2]; free ligand 1 mM,0.87
same,"Rns/Rse, proton glc-H1’",[2]; free ligand 1 mM,0.54
same,"Rns/Rse, proton glc-H1”",[2]; free ligand 1 mM,0.49
same,"Rns/Rse, proton H9",[2]; ligand 1 mM + HNE 5 µM,0.64
same,"Rns/Rse, proton H12",[2]; ligand 1 mM + HNE 5 µM,0.74
same,"Rns/Rse, proton glc-H1’",[2]; ligand 1 mM + HNE 5 µM,0.31
same,"Rns/Rse, proton glc-H1”",[2]; ligand 1 mM + HNE 5 µM,0.47
same,"Anti-HNE activity, inhibitory ratio",[1]; 1 µM compound,10.25±1.73%
same,"Anti-HNE activity, inhibitory ratio",[1]; 3 µM compound,19.00±6.99 %
same,"Anti-HNE activity, inhibitory ratio",[1]; 10 µM compound,28.21±4.84 %
same,"Anti-HNE activity, inhibitory ratio",[1]; 30 µM compound,40.89±1.28 %
same,"Anti-HNE activity, inhibitory ratio",[1]; 100 µM compound,78.66±1.99 %
same,IC50,[1],~27.6 µM
"C=C(C)[C@@H]1CC[C@]2(C)CC[C@]3(C)[C@H](CC[C@@H]4[C@@]5(C)CC[C@H](O)C(C)(C)[C@@H]5CC[C@]43C)[C@@H]12 [Compound 6, lupeol]","Rns/Rse, proton H13",[2]; free ligand 1 mM,1.67
same,"Rns/Rse, proton H19",[2]; free ligand 1 mM,1.03
same,"Rns/Rse, proton H24",[2]; free ligand 1 mM,1.03
same,"Rns/Rse, proton H29a",[2]; free ligand 1 mM,1.23
same,"Rns/Rse, proton H29b",[2]; free ligand 1 mM,1.24
same,"Rns/Rse, proton H13",[2]; ligand 1 mM + HNE 5 µM,1.27
same,"Rns/Rse, proton H19",[2]; ligand 1 mM + HNE 5 µM,1.00
same,"Rns/Rse, proton H24",[2]; ligand 1 mM + HNE 5 µM,1.03
same,"Rns/Rse, proton H29a",[2]; ligand 1 mM + HNE 5 µM,1.23
same,"Rns/Rse, proton H29b",[2]; ligand 1 mM + HNE 5 µM,1.22
same,"Anti-HNE activity, inhibitory ratio",[1]; 1 µM compound,9.38±6.80%
same,"Anti-HNE activity, inhibitory ratio",[1]; 3 µM compound,19.01±10.00 %
same,"Anti-HNE activity, inhibitory ratio",[1]; 10 µM compound,51.92±15.22 %
same,"Anti-HNE activity, inhibitory ratio",[1]; 30 µM compound,88.00±6.26 %
same,"Anti-HNE activity, inhibitory ratio","[1]; 30 µM compound, listed as lupeol",more than 80%
same,"Anti-HNE activity, inhibitory ratio",[1]; 100 µM compound,93.56±1.19 %
same,IC50,[1],~8.2 µM
"C[C@H]1[C@H](C)CC[C@]2(C(=O)O)CC[C@]3(C)C(=CC[C@@H]4[C@@]5(C)CC[C@H](O)C(C)(C)[C@@H]5CC[C@]43C)[C@H]12 [Compound 1, ursolic acid]",mode of HNE inhibition with respect to substrate,"[3]; 0, 3, 10 µM ursolic acid, six substrate concentrations 0.2-2 mM, 37°C",competitively inhibits HNE
same,"apparent maximum velocity Vmax′, trend","[3]; as a function of ursolic acid concentration 0-10 µM, P>0.05",invariable
same,"apparent Michaelis-Menten constant Kapp, trend","[3]; ursolic acid increasing from 0 µM to 10 µM, P<0.05",increased
same,"Rns/Rse, proton H3",[2]; free ligand 1 mM,0.93
same,"Rns/Rse, proton H12",[2]; free ligand 1 mM,0.88
same,"Rns/Rse, proton H18",[2]; free ligand 1 mM,0.92
same,"Rns/Rse, proton H3",[2]; ligand 1 mM + HNE 5 µM,0.73
same,"Rns/Rse, proton H12",[2]; ligand 1 mM + HNE 5 µM,0.62
same,"Rns/Rse, proton H18",[2]; ligand 1 mM + HNE 5 µM,0.81
same,"Anti-HNE activity, inhibitory ratio",[1]; 1 µM compound,12.22±6.64%
same,"Anti-HNE activity, inhibitory ratio","[1]; 1 µM compound, listed as Ursolic acid (1)",12.2%
same,"Anti-HNE activity, inhibitory ratio",[1]; 3 µM compound,36.47±5.75 %
same,"Anti-HNE activity, inhibitory ratio",[1]; 10 µM compound,80.84±3.14 %
same,"Anti-HNE activity, inhibitory ratio",[1]; 30 µM compound,82.98±5.67 %
same,"Anti-HNE activity, inhibitory ratio","[1]; 30 µM compound, listed as ursolic acid",more than 80%
same,"Anti-HNE activity, inhibitory ratio",[1]; 100 µM compound,88.47±2.96 %
same,IC50,[1],5.51 µM and ~5.51 µM
same,inhibition of the smoke-induced increase in BALF NE,[4]; 50 mg/kg intraperitoneal,54%
same,inhibition of the smoke-induced increase in BALF TNF-α,[4]; 50 mg/kg intraperitoneal,38%
same,dose with significant inhibition of BALF TNF-α,"[4]; doses 10, 30, 100 mg/kg, dose-dependent",≥ 10 mg/kg
same,dose with significant inhibition of BALF NE,"[4]; doses 10, 30, 100 mg/kg, dose-dependent, P<0.05",30 mg/kg
same,levels of BALF NE and TNF-α in vivo,[4]; smoke exposure,significantly suppressed
same,number of neutrophils in BALF,[4]; [5],significantly reduced
same,number of total leukocytes in BALF,[4]; [5],significantly reduced
CC(=O)OC(C)(C)/C=C/C(=O)[C@](C)(O)[C@H]1[C@H](O)C[C@@]2(C)[C@@H]3CC=C4[C@@H](C[C@H](O)C(=O)C4(C)C)[C@]3(C)C(=O)C[C@]12C [Compound 9],inhibition at 100 µM,[1],5.77%
"CC(C)(C)C(=O)Oc1ccc(S(=O)(=O)Nc2ccccc2C(=O)NCC(=O)O)cc1 [ONO-5046, Sivelestat sodium hydrate, reference compound]",smoke-induced increase in BALF inflammatory cells and proinflammatory cytokine levels,"[4]; intraperitoneal, positive control",prevented
CC(C)C1=CC(=O)C(C)(C2[C@H](O)C[C@@]3(C)[C@@H]4CC=C5[C@@H](CC[C@@H](OC6OCC(O)C(O)C6OC6OC(C)C(O)C(O)C6O)C5(C)C)[C@]4(C)C(=O)C[C@]23C)O1 (stereo partly drawn) [Compound 12],inhibition at 100 µM,[1],0.8%
CC(C)=CCCC1(C)CCC2(C)C3CCC4(C)C(C)C(=O)CCC4C3(C)CCC2(C)C1 (stereo not drawn) [Compound 10],inhibition at 100 µM,[1],2.33%
"CC(C)(O)[C@@H]1CC[C@](C)([C@H]2[C@@H](O)C[C@@]3(C)[C@@H]4C[C@H](O[C@@H]5O[C@H](CO)[C@@H](O)[C@H](O)[C@H]5O)[C@H]5C(C)(C)[C@@H](O[C@@H]6OC[C@@H](O)[C@H](O)[C@H]6O)CC[C@@]56C[C@@]46CC[C@]23C)O1 [Compound 7, astragaloside IV]",inhibition at 100 µM,[1],3.27%
same,levels of BALF NE and TNF-α in vivo,[4]; smoke exposure,did not observe the inhibitory effects
same,airway inflammation,"[4]; smoke exposure, intraperitoneal, negative control",did not inhibit
CC(=O)OC1CC(O)C23COC(O)C1(C)C2CC(O)C1(C)C3C(=O)C(OC(C)=O)C2(C)C(c3ccoc3)CC3OC321 (stereo not drawn) [Compound 11],inhibition at 100 µM,[1],4.28%
"C=C(C)[C@@H]1CC[C@]2(C(=O)O)CC[C@]3(C)[C@H](CC[C@@H]4[C@@]5(C)CC[C@H](O)C(C)(C)[C@@H]5CC[C@]43C)[C@@H]12 [Compound 5, betulinic acid]","Rns/Rse, proton H13",[2]; free ligand 1 mM,1.51
same,"Rns/Rse, proton H19",[2]; free ligand 1 mM,0.82
same,"Rns/Rse, proton H24",[2]; free ligand 1 mM,1.02
same,"Rns/Rse, proton H29a",[2]; free ligand 1 mM,0.96
same,"Rns/Rse, proton H29b",[2]; free ligand 1 mM,0.97
same,"Rns/Rse, proton H13",[2]; ligand 1 mM + HNE 5 µM,0.97
same,"Rns/Rse, proton H19",[2]; ligand 1 mM + HNE 5 µM,0.79
same,"Rns/Rse, proton H24",[2]; ligand 1 mM + HNE 5 µM,0.95
same,"Rns/Rse, proton H29a",[2]; ligand 1 mM + HNE 5 µM,0.95
same,"Rns/Rse, proton H29b",[2]; ligand 1 mM + HNE 5 µM,0.96
same,"Anti-HNE activity, inhibitory ratio",[1]; 1 µM compound,8.25±1.88%
same,"Anti-HNE activity, inhibitory ratio",[1]; 3 µM compound,46.57±2.47 %
same,"Anti-HNE activity, inhibitory ratio",[1]; 10 µM compound,74.20±2.32 %
same,"Anti-HNE activity, inhibitory ratio",[1]; 30 µM compound,80.58±2.21 %
same,"Anti-HNE activity, inhibitory ratio","[1]; 30 µM compound, listed as betulinic acid",more than 80%
same,"Anti-HNE activity, inhibitory ratio",[1]; 100 µM compound,82.41±1.37 %
same,IC50,[1],~6.83 µM
CC(C)=CCCC(C)(OC1OC(CO)C(O)C(O)C1O)C1CCC2(C)C1C(O)CC1C3(C)CCC(O)C(C)(C)C3C(OC3OC(CO)C(O)C(O)C3OC3OC(C)C(O)C(O)C3O)CC12C (stereo not drawn) [Compound 8],inhibition at 100 µM,[1],4.01%
"CC1(C)[C@@H](O)CC[C@]2(C)[C@H]3C(=O)C=C4[C@@H]5C[C@@](C)(C(=O)O)CC[C@]5(C)CC[C@@]4(C)[C@]3(C)CC[C@@H]12 [Compound 3, glycyrrhetinic acid]","Rns/Rse, proton H3",[2]; free ligand 1 mM,0.96
same,"Rns/Rse, proton H5",[2]; free ligand 1 mM,0.92
same,"Rns/Rse, proton H12",[2]; free ligand 1 mM,0.94
same,"Rns/Rse, proton H18",[2]; free ligand 1 mM,2.29
same,"Rns/Rse, proton H3",[2]; ligand 1 mM + HNE 5 µM,0.74
same,"Rns/Rse, proton H5",[2]; ligand 1 mM + HNE 5 µM,0.84
same,"Rns/Rse, proton H12",[2]; ligand 1 mM + HNE 5 µM,0.85
same,"Rns/Rse, proton H18",[2]; ligand 1 mM + HNE 5 µM,0.81
same,"Anti-HNE activity, inhibitory ratio",[1]; 1 µM compound,0.06±6.40%
same,"Anti-HNE activity, inhibitory ratio",[1]; 3 µM compound,1.05±5.24%
same,"Anti-HNE activity, inhibitory ratio",[1]; 10 µM compound,21.09±4.96%
same,"Anti-HNE activity, inhibitory ratio",[1]; 30 µM compound,45.84±0.41 %
same,"Anti-HNE activity, inhibitory ratio",[1]; 100 µM compound,75.20±2.89 %
same,IC50,[1],~36.9 µM
